From patent US8673897B2, “Benzodiazepinone compounds and methods of treatment using same” (The Regents of the University of Michigan, priority 2009, dated 2014)
Read-outs that look alike come from different tables or passages of the source.

Assays:
ATPase = biological target: T1, ATPase (Bos taurus, UniProt P13621); assay: ATPase inhibition assay; assay type: biochemical
T1 construct: from tissue; host or cells: bovine sub-mitochondrial particles (SMPs)
Protocol: (§1) Representative compounds were tested for cytotoxicity in Ramos cells and inhibitory activity against ATPase. The Ramos cell death assay and ATPase inhibition assay were conducted as described in K. M. Johnson et al. Chemistry & Biology 2005, 12, 485-496.

Ramos cells = assay: Ramos cell death assay (cytotoxicity); assay type: cell-based; settings: Homo sapiens
Protocol: as §1

Compound | IC50 (ATPase; read-out: ATPase IC50) | EC50 (Ramos cells) | IC50 (ATPase)
CCn1c(=O)[nH]c2ccc(C3=NC(Cc4ccc5ccccc5c4)C(=O)N(C)c4ccc(Cl)cc43)cc21 (stereo not drawn) [Compound I-1, 7-Chloro-5-(3-ethyl-2-oxo-2,3-dihydro-1H-benzo[d]imidazol-5-yl)-1-methyl-3-(naphthalen-2-ylmethyl)-1H-benzo[e][1,4]diazepin-2(3H)-one] | < 7 µM | > 7 µM | 
Cn1c(=O)[nH]c2ccc(C3=NC(Cc4ccccc4Cl)C(=O)Nc4ccc(Cl)cc43)cc21 (stereo not drawn) [Compound I-2, 7-Chloro-3-(2-chlorobenzyl)-5-(3-methyl-2-oxo-2,3-dihydro-1H-benzo[d]imidazol-5-yl)-1H-benzo[e][1,4]diazepin-2(3H)-one] |  | < 7 µM | < 7 µM
O=C(O)Cn1c(=O)[nH]c2ccc(C3=NC(Cc4ccccc4Cl)C(=O)Nc4ccc(Cl)cc43)cc21 (stereo not drawn) [Compound I-3, 2-(6-(7-Chloro-3-(2-chlorobenzyl)-2-oxo-2,3-dihydro-1H-benzo[e][1,4]diazepin-5-yl)-2-oxo-2,3-dihydro-1H-benzo[d]imidazol-1-yl)acetic acid] | > 7 µM | > 7 µM | 
CNC(=O)Cn1c(=O)[nH]c2ccc(C3=NC(Cc4ccccc4Cl)C(=O)Nc4ccc(Cl)cc43)cc21 (stereo not drawn) [Compound I-4, 2-(6-(7-Chloro-3-(2-chlorobenzyl)-2-oxo-2,3-dihydro-1H-benzo[e][1,4]diazepin-5-yl)-2-oxo-2,3-dihydro-1H-benzo[d]imidazol-1-yl)-N-methylacetamide] | > 7 µM | > 7 µM | 
O=C1Nc2ccc(Cl)cc2C(c2ccc3[nH]c(=O)n(CCCO)c3c2)=NC1Cc1ccccc1Cl (stereo not drawn) [Compound I-5, 7-Chloro-3-(2-chlorobenzyl)-5-(3-(3-hydroxypropyl)-2-oxo-2,3-dihydro-1H-benzo[d]imidazol-5-yl)-1H-benzo[e][1,4]diazepin-2(3H)-one] | < 7 µM | < 7 µM | 
O=C1Nc2ccc(Cl)cc2C(c2ccc3[nH]c(=O)n(CCO)c3c2)=NC1Cc1ccccc1Cl (stereo not drawn) [Compound I-6, 7-Chloro-3-(2-chlorobenzyl)-5-(3-(2-hydroxyethyl)-2-oxo-2,3-dihydro-1H-benzo[d]imidazol-5-yl)-1H-benzo[e][1,4]diazepin-2(3H)-one] | > 7 µM | < 7 µM | 
CN1C(=O)C(Cc2ccccc2Cl)N=C(c2ccc3[nH]c(=O)n(CCCO)c3c2)c2cc(Cl)ccc21 (stereo not drawn) [Compound I-7, 7-Chloro-3-(2-chlorobenzyl)-5-(3-(3-hydroxypropyl)-2-oxo-2,3-dihydro-1H-benzo[d]imidazol-5-yl)-1-methyl-1H-benzo[e][1,4]diazepin-2(3H)-one] | < 7 µM | > 7 µM | 
Cn1c(=O)[nH]c2ccc(C3=NC(Cc4ccccc4Cl)C(=O)N(CCO)c4ccc(Cl)cc43)cc21 (stereo not drawn) [Compound I-8, 7-Chloro-3-(2-chlorobenzyl)-1-(2-hydroxyethyl)-5-(3-methyl-2-oxo-2,3-dihydro-1H-benzo[d]imidazol-5-yl)-1H-benzo[e][1,4]diazepin-2(3H)-one] | < 7 µM | > 7 µM | 
COc1cc(Cl)cc2c1NC(=O)C(Cc1ccccc1Cl)N=C2c1ccc2[nH]c(=O)n(C)c2c1 (stereo not drawn) [Compound I-9, 7-Chloro-3-(2-chlorobenzyl)-9-methoxy-5-(3-methyl-2-oxo-2,3-dihydro-1H-benzo[d]imidazol-5-yl)-1H-benzo[e][1,4]diazepin-2(3H)-one] | < 7 µM | < 7 µM | 
Cn1c(=O)[nH]c2ccc(C3=NC(Cc4ccccc4Cl)C(=O)Nc4c(O)cc(Cl)cc43)cc21 (stereo not drawn) [Compound I-10, 7-Chloro-3-(2-chlorobenzyl)-9-hydroxy-5-(3-methyl-2-oxo-2,3-dihydro-1H-benzo[d]imidazol-5-yl)-1H-benzo[e][1,4]diazepin-2(3H)-one] | < 7 µM | > 7 µM | 
CN1C(=O)C(Cc2ccccc2Cl)N=C(c2ccc3[nH]c(=O)n(C)c3c2)c2cc(Cl)ccc21 (stereo not drawn) [Compound I-11, 7-Chloro-3-(2-chlorobenzyl)-1-methyl-5-(3-methyl-2-oxo-2,3-dihydro-1H-benzo[d]imidazol-5-yl)-1H-benzo[e][1,4]diazepin-2(3H)-one] | < 7 µM | > 7 µM | 
Cn1c(=O)[nH]c2ccc(C3=NC(Cc4ccccc4Cl)C(=O)Nc4c(F)cc(Cl)cc43)cc21 (stereo not drawn) [Compound I-12, 7-Chloro-3-(2-chlorobenzyl)-9-fluoro-5-(3-methyl-2-oxo-2,3-dihydro-1H-benzo[d]imidazol-5-yl)-1H-benzo[e][1,4]diazepin-2(3H)-one] | < 7 µM | > 7 µM | 
Cn1c(=O)[nH]c2ccc(C3=NC(Cc4ccc(Cl)cc4)C(=O)Nc4ccc(Cl)cc43)cc21 (stereo not drawn) [Compound I-13, 7-Chloro-3-(4-chlorobenzyl)-5-(3-methyl-2-oxo-2,3-dihydro-1H-benzo[d]imidazol-5-yl)-1H-benzo[e][1,4]diazepin-2(3H)-one] |  | < 7 µM | < 7 µM
CCn1c(=O)[nH]c2cc(C3=NC(Cc4ccc5ccccc5c4)C(=O)Nc4ccc(Cl)cc43)ccc21 (stereo not drawn) [Compound I-14] | < 7 µM | < 7 µM | 
O=C1Nc2ccc(F)cc2C(c2ccc3[nH]c(=O)[nH]c3c2)=NC1Cc1ccccc1Cl (stereo not drawn) [II-1, 3-(2-Chlorobenzyl)-7-fluoro-5-(2-oxo-2,3-dihydro-1H-benzo[d]imidazol-5-yl)-1H-benzo[e][1,4]diazepin-2(3H)-one] |  | < 7 µM | > 7 µM
CCc1ccc(CC2N=C(c3ccc(O)c(CC(N)=O)c3)c3cc(Cl)ccc3NC2=O)cc1CC (stereo not drawn) [III-1, 2-(5-(7-Chloro-3-(3,4-diethylbenzyl)-2-oxo-2,3-dihydro-1H-benzo[e][1,4]diazepin-5-yl)-2-hydroxyphenyl)acetamide] | > 7 µM | < 7 µM | 
Cc1cc(C2=NC(Cc3cc(F)ccc3Cl)C(=O)Nc3ccc(Cl)cc32)ccc1O (stereo not drawn) [III-2, 7-Chloro-3-(2-chloro-5-fluorobenzyl)-5-(4-hydroxy-3-methylphenyl)-1H-benzo[e][1,4]diazepin-2(3H)-one] |  | < 7 µM | < 7 µM
Cc1cc(C2=NC(Cc3ccc(Cl)cc3)C(=O)Nc3ccc(Cl)cc32)ccc1O (stereo not drawn) [III-3, 7-Chloro-3-(4-chlorobenzyl)-5-(4-hydroxy-3-methylphenyl)-1H-benzo[e][1,4]diazepin-2(3H)-one] |  | < 7 µM | < 7 µM
Cc1cc(C2=NC(Cc3ccc(F)cc3Cl)C(=O)Nc3ccc(Cl)cc32)ccc1O (stereo not drawn) [III-4, 7-Chloro-3-(2-chloro-4-fluorobenzyl)-5-(4-hydroxy-3-methylphenyl)-1H-benzo[e][1,4]diazepin-2(3H)-one] |  | < 7 µM | < 7 µM
Cc1cc(C2=NC(Cc3ccccc3C(F)(F)F)C(=O)Nc3ccc(Cl)cc32)ccc1O (stereo not drawn) [III-5, 7-Chloro-5-(4-hydroxy-3-methylphenyl)-3-(2-(trifluoromethyl)benzyl)-1H-benzo[e][1,4]diazepin-2(3H)-one] |  | < 7 µM | < 7 µM
Cc1cc(C2=NC(Cc3ccc(C(F)(F)F)cc3)C(=O)Nc3ccc(Cl)cc32)ccc1O (stereo not drawn) [III-6, 7-Chloro-5-(4-hydroxy-3-methylphenyl)-3-(4-(trifluoromethyl)benzyl)-1H-benzo[e][1,4]diazepin-2(3H)-one] |  | > 7 µM | > 7 µM
Cn1c(=O)[nH]c2ccc(C3=N[C@H](Cc4ccccc4Cl)C(=O)Nc4ccc(Cl)cc43)cc21 [IV-1, (R)-7-Chloro-3-(2-chlorobenzyl)-5-(3-methyl-2-oxo-2,3-dihydro-1H-benzo[d]imidazol-5-yl)-1H-benzo[e][1,4]diazepin-2(3H)-one] |  | < 7 µM | < 7 µM
Cn1c(=O)[nH]c2ccc(C3=N[C@@H](Cc4ccccc4Cl)C(=O)Nc4ccc(Cl)cc43)cc21 [IV-2, (S)-7-chloro-3-(2-chlorobenzyl)-5-(3-methyl-2-oxo-2,3-dihydro-1H-benzo[d]imidazol-5-yl)-1H-benzo[e][1,4]diazepin-2(3H)-one] |  | < 7 µM | < 7 µM
O=C1Nc2ccc(Cl)cc2C(c2ccc3[nH]c(=O)n(CCCO)c3c2)=N[C@@H]1Cc1ccccc1Cl [IV-3, (R)-7-chloro-3-(2-chlorobenzyl)-5-(3-(3-hydroxypropyl)-2-oxo-2,3-dihydro-1H-benzo[d]imidazol-5-yl)-1H-benzo[e][1,4]diazepin-2(3H)-one] | < 7 µM | < 7 µM | 
O=C1Nc2ccc(Cl)cc2C(c2ccc3[nH]c(=O)n(CCCO)c3c2)=N[C@H]1Cc1ccccc1Cl [IV-4, (S)-7-Chloro-3-(2-chlorobenzyl)-5-(3-(3-hydroxypropyl)-2-oxo-2,3-dihydro-1H-benzo[d]imidazol-5-yl)-1H-benzo[e][1,4]diazepin-2(3H)-one] | < 7 µM | < 7 µM | 
Cc1cc(C2=N[C@@H](Cc3ccccc3Cl)C(=O)Nc3ccc(Cl)cc32)ccc1O [IV-5, (S)-7-Chloro-3-(2-chlorobenzyl)-5-(4-hydroxy-3-methylphenyl)-1H-benzo[e][1,4]diazepin-2(3H)-one] |  | < 7 µM | < 7 µM
Cc1cc(C2=N[C@H](Cc3ccccc3Cl)C(=O)Nc3ccc(Cl)cc32)ccc1O [IV-6, (R)-7-Chloro-3-(2-chlorobenzyl)-5-(4-hydroxy-3-methylphenyl)-1H-benzo[e][1,4]diazepin-2(3H)-one] |  | < 7 µM | < 7 µM
